# From ChEMBL document CHEMBL1201862, “PubChem BioAssay data set” (2004)
# Calls of active or inactive are those of the source.
# Legend:
# [1] = luciferase reporter signal suppression in cells – H4 neuroglioma cells, luminescence, dose response (AID 1990); assay type: functional, cell-based
# [2] = luciferase reporter signal reduction – luminescence, H4-C neuroglioblastoma cells, dose response (AID 2458); assay type: functional, cell-based;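 note: H4 neuroglioblastoma cells stably carrying a luciferase reporter gene fusion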
# BJ [3] = experiment: BJ-TERT fibroblast viability loss – cell-based, RAS-independent, luminescence, dose response (AID 1933); assay type: functional; settings: Homo sapiens
# cells [4] = assay type: functional, cell-based
# [5] = Luminescence Cell-Based Dose Response HTS to Identify Inhibitors of 5'UTR Stem-Loop Driven Prion Protein mRNA Translation in H4 Neuroglioblastoma Cells. [Related pubchem assays: 1827 (Project Summary), 1813 (Primary HTS)]; assay type: functional
# [6] = alpha-synuclein stem-loop luciferase translation blockers – H4 neuroglioma cells, luminescence, confirmation (AID 1988); assay type: functional, cell-based
# BJ [7] = experiment: cells; assay type: functional, cell-based; settings: Homo sapiens
# [8] = Luminescence-based dose response cell-based high throughput screening assay for cytotoxic compounds using the IEC-6 intestinal epithelial cell line. [Related pubchem assays: 1858 (Summary AID.), 1825 (Counterscreen.), 1907 (Confirmation screen.)]; assay type: functional
# BJ [9] = experiment: BJ-TERT-LT-ST fibroblast viability loss – cell-based, RAS-independent, luminescence, dose response (AID 1935); assay type: functional; settings: Homo sapiens;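 note: BJ fibroblasts immortalized with TERT plus LT and ST oncogenes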
# [10] = DRD fibroblast viability loss – cell-based, non-viral oncogenic, luminescence, dose response (AID 1934); assay type: functional; settings: Homo sapiens
# [11] = alpha-synuclein stem-loop translation blockers – luminescence, H4 neuroglioblastoma cells, dose confirmation, confirmation (AID 2454); assay type: functional, cell-based;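 note: H4 neuroglioblastoma cells carrying an alpha-synuclein 5'UTR luciferase reporter; potency for inhibition of the luciferase signal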
# BJ [12] = experiment: growth inhibition of engineered Ras-driven BJ cells – cell-based, alamar blue fluorescence, cherrypicked samples, dose response (AID 2631); assay type: functional; settings: Homo sapiens;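 note: confirmatory dose-response assay in RAS-dependent BJ fibroblasts engineered with TERT, LT and ST, with cytotoxicity read by fluorescence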
# [13] = target: Peroxisome proliferator-activated receptor gamma/Nuclear receptor coactivator 1 (Homo sapiens, UniProt P37231); experiment: (§1) TR-FRET dose response biochemical High Throughput Screening assay for agonists of the steroid receptor coactivator 1 (SRC-1) recruitment by the peroxisome proliferator-activated receptor gamma (PPAR gamma): non-selective agonists. [Related pubchem assays (depositor defined):AID1300, AID1808, AID504735, AID631]; assay type: protein assay
# [14] = target: Peroxisome proliferator-activated receptor gamma/Nuclear receptor coactivator 3 (Homo sapiens, UniProt P37231); experiment: as §1, with “3 (SRC-3)” for “1 (SRC-1)”, “assays: 1301 (Confirmation screen.), 1048 (Primary screen.)]” for “assays (depositor defined):AID1300, AID1808, AID504735, AID631]”; assay type: functional
# [15] = target: Peroxisome proliferator-activated receptor gamma/Nuclear receptor coactivator 2 (Homo sapiens, UniProt P37231); experiment: TR-FRET dose response biochemical High Throughput Screening assay for agonists of the steroid receptor coactivator 2 (SRC-2) recruitment by the peroxisome proliferator-activated receptor gamma (PPAR gamma): non-selective agonists. [Related pubchem assays: 1297, 1032 ]; assay type: functional
# [16] = target: Botulinum neurotoxin type A (Clostridium botulinum (strain Hall / ATCC 3502 / NCTC 13319 / Type A), UniProt P0DPI1); experiment: High-throughput multiplex microsphere dose response for inhibitors of toxin protease, specifically Botulinum neurotoxin light chain A protease, compounds from Cherry Pick 02.; assay type: functional; settings: read-out: EC50_MICROM
# [17] = target: Botulinum neurotoxin type F (Clostridium botulinum, UniProt P30996); experiment: High-throughput multiplex microsphere dose response for inhibitors of toxin protease, specifically Botulinum neurotoxin light chain F protease, compounds from Cherry Pick 02.; assay type: functional; settings: read-out: EC50_MICROM
# Protein S100-A4 = Protein S100-A4 (Homo sapiens, UniProt P26447); experiment: human S100A4 peptide interaction inhibition curves – biochemical, fluorescence polarization, cherry-picked hits, dose response (AID 687001); assay type: functional
# [18] = target: Luciferin 4-monooxygenase (Photinus pyralis, UniProt P08659); experiment: inhibition of purified Photinus pyralis luciferase – biochemical, luminescence, dose response (AID 1891)
# [19] = Luminescence Cell-Based Dose Confirmation HTS to Identify Inhibitors of Platelet Dense Granule Release. [Related pubchem assays: 1663 (Primary HTS), 1678 (Summary of Project)]; assay type: functional
# [20] = luciferase inhibitors in kinase-free ADP detection – biochemical, luminescence, cherry-pick, set 02, artefact control for Dyrk1A inhibitor project, dose response (AID 588348)
# [21] = target: Dual specificity tyrosine-phosphorylation-regulated kinase 1A (Rattus norvegicus, UniProt Q63470); assay type: biochemical, Homo sapiens
# [22] = target: T1, Oxysterols receptor LXR-beta (Homo sapiens, UniProt P55055); assay type: functional, cell-based;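 note: Cell-based luminescence dose-response assay of agonist activity at LXR, run as a confirmatory counterscreen to a daf-12 agonist screen; HEK293 cells with Gal4-LXR fusion and GAL4-driven luciferase reporter; agonist potency from rising luciferase signal of a Gal4-LXR reporter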
# T1 sequence (P55055 whole entry): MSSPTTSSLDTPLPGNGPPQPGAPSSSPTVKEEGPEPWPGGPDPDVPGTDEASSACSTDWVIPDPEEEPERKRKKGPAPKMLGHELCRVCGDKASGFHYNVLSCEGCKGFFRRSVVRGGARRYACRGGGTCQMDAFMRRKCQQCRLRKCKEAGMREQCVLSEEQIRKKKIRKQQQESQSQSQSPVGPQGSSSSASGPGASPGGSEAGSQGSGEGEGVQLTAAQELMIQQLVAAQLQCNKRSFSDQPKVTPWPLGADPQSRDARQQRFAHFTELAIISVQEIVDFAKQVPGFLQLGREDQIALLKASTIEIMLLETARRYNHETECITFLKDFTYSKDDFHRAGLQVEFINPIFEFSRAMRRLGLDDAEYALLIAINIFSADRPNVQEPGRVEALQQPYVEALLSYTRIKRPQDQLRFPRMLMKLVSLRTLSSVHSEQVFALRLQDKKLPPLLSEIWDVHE
# cells [23] = experiment: cells
# [24] = target: Mitogen-activated protein kinase kinase kinase kinase 2 (Homo sapiens, UniProt Q12851); assay type: functional;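 note: measured as one member of a kinome-wide kinase panel, with MAP4K2 as the panel entry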
# [25] = target: Dual specificity protein kinase CLK4 (Homo sapiens, UniProt Q9HAZ1); assay type: functional
# [26] = target: Eukaryotic elongation factor 2 kinase (Homo sapiens, UniProt O00418); assay type: functional
# [27] = target: Testis-specific serine/threonine-protein kinase 2 (Homo sapiens, UniProt Q96PF2); assay type: functional;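 note: part of the Navigating the Kinome panel, target entry STK22B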
# [28] = target: Cell division cycle 7-related protein kinase (Homo sapiens, UniProt O00311); assay type: functional;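 note: value obtained from a kinome-wide kinase panel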
# [29] = target: Protein kinase C gamma type (Homo sapiens, UniProt P05129); assay type: functional
# [30] = target: Dual specificity tyrosine-phosphorylation-regulated kinase 3 (Homo sapiens, UniProt O43781); assay type: functional;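 note: measured as one member of a broad kinase panel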
# [31] = target: MAP kinase-activated protein kinase 3 (Homo sapiens, UniProt Q16644); assay type: functional;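 note: value comes from a kinome-wide profiling panel in which MAPKAPK3 is one of the panel members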
# [32] = target: Dual specificity tyrosine-phosphorylation-regulated kinase 4 (Homo sapiens, UniProt Q9NR20); assay type: functional
# [33] = target: Lymphokine-activated killer T-cell-originated protein kinase (Homo sapiens, UniProt Q96KB5); assay type: functional;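 note: value comes from a kinase panel screen in which TOPK was one of the panel members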
# 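Throughout, for IC50: cell viability measured after two days of compound exposure.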
# Botulinum neurotoxin type A, sequence (P0DPI1 2-448 limits assumed): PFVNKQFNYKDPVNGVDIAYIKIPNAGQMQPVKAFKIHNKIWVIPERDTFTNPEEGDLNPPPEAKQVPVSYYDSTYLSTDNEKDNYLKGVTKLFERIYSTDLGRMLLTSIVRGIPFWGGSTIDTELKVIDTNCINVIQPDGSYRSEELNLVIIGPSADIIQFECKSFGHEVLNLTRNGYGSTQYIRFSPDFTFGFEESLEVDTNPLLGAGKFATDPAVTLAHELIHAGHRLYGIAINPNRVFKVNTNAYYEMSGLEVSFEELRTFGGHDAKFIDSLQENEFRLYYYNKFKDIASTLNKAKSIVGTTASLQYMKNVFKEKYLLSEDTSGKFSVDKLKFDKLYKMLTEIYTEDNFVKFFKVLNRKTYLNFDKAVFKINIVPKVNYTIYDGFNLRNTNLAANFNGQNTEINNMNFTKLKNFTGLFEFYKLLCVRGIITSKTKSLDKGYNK
# Dual specificity protein kinase CLK4, sequence (Q9HAZ1 whole entry): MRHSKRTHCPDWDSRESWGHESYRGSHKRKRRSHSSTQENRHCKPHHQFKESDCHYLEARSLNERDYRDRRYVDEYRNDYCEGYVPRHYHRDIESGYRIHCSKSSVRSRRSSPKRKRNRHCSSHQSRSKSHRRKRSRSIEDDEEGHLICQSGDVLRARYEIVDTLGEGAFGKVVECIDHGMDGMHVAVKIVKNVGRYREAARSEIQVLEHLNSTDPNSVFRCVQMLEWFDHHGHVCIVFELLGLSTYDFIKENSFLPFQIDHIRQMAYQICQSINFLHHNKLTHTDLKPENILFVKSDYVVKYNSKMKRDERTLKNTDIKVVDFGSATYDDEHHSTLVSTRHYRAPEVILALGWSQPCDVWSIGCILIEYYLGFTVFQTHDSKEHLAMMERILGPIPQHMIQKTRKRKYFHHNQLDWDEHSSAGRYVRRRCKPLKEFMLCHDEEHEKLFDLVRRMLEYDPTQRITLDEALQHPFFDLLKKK
# Dual specificity tyrosine-phosphorylation-regulated kinase 3, sequence (O43781 whole entry): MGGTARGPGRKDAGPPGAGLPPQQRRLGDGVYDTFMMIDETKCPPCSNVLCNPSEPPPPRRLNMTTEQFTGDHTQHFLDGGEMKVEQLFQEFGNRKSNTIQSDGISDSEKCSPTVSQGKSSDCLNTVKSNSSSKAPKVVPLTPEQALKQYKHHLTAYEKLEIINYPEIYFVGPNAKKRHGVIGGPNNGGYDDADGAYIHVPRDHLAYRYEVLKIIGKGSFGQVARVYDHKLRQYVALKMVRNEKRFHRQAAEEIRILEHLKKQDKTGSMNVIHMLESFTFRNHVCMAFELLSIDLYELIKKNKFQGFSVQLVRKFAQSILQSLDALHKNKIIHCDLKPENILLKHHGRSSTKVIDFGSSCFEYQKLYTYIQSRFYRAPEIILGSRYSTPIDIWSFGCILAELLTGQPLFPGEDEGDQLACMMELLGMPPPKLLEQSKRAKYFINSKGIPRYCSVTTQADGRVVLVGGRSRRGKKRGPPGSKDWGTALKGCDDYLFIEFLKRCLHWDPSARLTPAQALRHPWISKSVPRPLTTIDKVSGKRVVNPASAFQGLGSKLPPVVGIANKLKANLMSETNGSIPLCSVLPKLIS
# Protein S100-A4, sequence (P26447 whole entry): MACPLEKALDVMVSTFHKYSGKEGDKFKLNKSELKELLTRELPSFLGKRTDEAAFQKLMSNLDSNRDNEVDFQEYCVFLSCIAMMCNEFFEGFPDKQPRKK
# Botulinum neurotoxin type F, sequence (P30996 1-436 limits assumed): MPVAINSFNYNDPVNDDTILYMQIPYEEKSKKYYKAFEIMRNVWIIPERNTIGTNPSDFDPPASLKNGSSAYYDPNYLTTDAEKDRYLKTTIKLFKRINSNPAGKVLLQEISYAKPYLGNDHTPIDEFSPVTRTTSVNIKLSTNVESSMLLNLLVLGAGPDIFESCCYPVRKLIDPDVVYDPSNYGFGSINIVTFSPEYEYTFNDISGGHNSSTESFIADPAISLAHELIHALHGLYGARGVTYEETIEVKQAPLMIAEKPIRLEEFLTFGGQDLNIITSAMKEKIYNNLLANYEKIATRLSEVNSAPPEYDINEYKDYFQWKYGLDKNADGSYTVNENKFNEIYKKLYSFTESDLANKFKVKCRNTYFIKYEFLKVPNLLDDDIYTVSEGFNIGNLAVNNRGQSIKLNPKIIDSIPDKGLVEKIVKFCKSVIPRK
# Mitogen-activated protein kinase kinase kinase kinase 2, sequence (Q12851 whole entry): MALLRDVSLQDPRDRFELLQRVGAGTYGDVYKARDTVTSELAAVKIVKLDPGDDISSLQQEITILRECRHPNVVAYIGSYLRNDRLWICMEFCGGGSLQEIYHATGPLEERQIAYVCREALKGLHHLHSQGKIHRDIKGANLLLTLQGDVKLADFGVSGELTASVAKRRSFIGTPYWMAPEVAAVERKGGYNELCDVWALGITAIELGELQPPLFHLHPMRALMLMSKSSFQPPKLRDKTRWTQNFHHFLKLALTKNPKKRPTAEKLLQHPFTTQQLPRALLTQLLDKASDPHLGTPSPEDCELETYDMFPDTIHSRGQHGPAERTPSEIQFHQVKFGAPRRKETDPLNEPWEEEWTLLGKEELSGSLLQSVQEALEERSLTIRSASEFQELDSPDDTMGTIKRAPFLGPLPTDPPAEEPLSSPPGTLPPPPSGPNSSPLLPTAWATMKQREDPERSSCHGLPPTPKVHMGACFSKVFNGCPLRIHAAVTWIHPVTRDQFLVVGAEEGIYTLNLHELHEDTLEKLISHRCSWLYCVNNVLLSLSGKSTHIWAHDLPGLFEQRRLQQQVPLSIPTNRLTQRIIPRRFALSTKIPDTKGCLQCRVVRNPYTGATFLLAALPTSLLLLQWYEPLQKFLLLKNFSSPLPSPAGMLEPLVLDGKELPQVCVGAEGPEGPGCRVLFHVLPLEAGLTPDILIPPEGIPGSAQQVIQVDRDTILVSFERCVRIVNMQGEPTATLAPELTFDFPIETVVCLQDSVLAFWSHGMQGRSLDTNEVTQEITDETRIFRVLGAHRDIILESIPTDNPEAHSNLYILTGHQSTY
# Peroxisome proliferator-activated receptor gamma/Nuclear receptor coactivator 1, sequence (P37231 whole entry): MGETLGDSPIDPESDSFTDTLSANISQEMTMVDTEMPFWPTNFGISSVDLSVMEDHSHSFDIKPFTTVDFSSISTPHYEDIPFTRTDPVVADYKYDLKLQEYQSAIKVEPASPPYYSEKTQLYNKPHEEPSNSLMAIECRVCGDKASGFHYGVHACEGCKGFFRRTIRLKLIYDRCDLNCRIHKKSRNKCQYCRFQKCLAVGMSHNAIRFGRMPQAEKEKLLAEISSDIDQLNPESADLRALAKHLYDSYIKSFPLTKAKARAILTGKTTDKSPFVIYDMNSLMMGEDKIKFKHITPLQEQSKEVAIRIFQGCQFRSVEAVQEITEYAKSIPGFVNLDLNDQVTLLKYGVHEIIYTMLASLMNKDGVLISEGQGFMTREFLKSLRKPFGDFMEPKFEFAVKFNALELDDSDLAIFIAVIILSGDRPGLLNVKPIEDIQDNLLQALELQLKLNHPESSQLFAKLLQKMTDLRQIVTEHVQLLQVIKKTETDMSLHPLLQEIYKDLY
# Peroxisome proliferator-activated receptor gamma/Nuclear receptor coactivator 1, sequence (Q15788 whole entry, further chain): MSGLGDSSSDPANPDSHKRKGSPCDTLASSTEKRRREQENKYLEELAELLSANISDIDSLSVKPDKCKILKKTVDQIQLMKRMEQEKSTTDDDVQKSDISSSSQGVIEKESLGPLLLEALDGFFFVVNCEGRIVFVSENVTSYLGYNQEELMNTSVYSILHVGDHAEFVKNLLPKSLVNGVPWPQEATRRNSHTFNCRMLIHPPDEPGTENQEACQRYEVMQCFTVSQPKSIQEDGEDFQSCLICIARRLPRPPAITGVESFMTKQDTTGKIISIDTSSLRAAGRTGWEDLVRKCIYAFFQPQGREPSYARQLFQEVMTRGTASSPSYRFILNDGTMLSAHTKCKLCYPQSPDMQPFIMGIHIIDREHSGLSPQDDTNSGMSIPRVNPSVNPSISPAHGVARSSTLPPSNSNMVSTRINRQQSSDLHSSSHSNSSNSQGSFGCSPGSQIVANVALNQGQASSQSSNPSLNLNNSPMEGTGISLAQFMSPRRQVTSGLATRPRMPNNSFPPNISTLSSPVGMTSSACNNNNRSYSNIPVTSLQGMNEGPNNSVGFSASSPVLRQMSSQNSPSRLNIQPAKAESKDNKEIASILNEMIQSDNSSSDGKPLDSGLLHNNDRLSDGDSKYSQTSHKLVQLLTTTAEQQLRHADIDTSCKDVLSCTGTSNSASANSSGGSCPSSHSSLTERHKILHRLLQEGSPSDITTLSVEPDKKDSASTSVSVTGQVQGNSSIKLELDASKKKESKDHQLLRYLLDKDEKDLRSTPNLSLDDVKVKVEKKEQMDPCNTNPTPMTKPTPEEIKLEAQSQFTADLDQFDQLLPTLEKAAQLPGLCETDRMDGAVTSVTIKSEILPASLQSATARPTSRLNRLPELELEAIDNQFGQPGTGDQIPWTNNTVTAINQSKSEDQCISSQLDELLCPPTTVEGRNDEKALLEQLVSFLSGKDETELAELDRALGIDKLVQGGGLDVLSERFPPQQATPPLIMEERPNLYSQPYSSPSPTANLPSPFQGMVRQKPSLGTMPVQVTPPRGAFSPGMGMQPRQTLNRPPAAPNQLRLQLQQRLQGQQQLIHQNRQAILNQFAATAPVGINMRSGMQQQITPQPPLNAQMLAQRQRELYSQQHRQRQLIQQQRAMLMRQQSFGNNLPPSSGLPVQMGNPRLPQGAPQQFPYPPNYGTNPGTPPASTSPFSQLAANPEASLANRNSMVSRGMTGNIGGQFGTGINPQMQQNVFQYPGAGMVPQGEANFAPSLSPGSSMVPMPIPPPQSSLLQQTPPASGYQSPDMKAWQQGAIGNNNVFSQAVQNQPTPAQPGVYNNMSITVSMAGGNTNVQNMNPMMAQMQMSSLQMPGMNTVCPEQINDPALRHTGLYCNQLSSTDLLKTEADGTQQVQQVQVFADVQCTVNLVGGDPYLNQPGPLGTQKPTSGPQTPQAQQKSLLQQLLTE
smiles,measurement,setting,value
C#CCOc1ccc(C2C3=C(O)OCC3=Nc3cc4c(cc32)OCO4)cc1OC (centres undefined),EC50,[1],< 0.1 µM (active)
same,EC50,[2],0.234 µM (active)
same,EC50,BJ [3],3.14 µM (inconclusive)
same,EC50,cells [4],0.371 µM (active)
same,EC50,[5],< 0.1 µM (active)
same,EC50,[6],< 0.1 µM (active)
same,EC50,BJ [7],2.72 µM (inconclusive)
same,IC50,[8],0.0471 µM (active)
same,EC50,BJ [9],0.942 µM (active)
same,EC50,[10],0.9 µM (inconclusive)
same,EC50,[11],0.231 µM (active)
same,EC50,BJ [12],< 0.104 µM (active)
Cc1cc2ccccc2n1CCNC(=O)c1ccc(S(=O)(=O)N2CCCCC2)cc1,EC50,[13],5.91 µM (active)
same,EC50,[14],13.6 µM (not active)
same,EC50,[15],6.53 µM (active)
same,EC50,[16],1 µM (active)
same,EC50,[17],> 20 µM (inactive)
same,AC50,Protein S100-A4,6.69 µM (active)
Cc1ccccc1C(=O)O/N=C(\N)c1ccccc1,EC50,[18],3.42 µM (active)
same,EC50,[19],2.72 µM (active)
same,AC50,[20],60.9 µM (active)
same,AC50,[21],62.5 µM (active)
same,EC50,[22],> 67.5 µM (inactive)
same,EC50,cells [23],> 67.5 µM (inactive)
O=C1CC(c2ccc(Cl)cc2Cl)Cc2[nH]c3ccc(Cl)cc3c(=O)c21 (centres undefined),Ki,[24],5.01 µM (active)
same,Ki,[25],7.94 µM (active)
Cc1ccc(NC(=O)c2ccc(CN3CCN(C)CC3)cc2)cc1Nc1nccc(-c2cccnc2)n1 [IMATINIB],Ki,[26],> 3.98 µM (inactive)
same,Ki,[27],> 1.58 µM (inactive)
same,Ki,[28],> 1.26 µM (inactive)
same,Ki,[29],> 7.94 µM (inactive)
same,Ki,[30],> 6.31 µM (inactive)
same,Ki,[31],> 10 µM (inactive)
same,Ki,[32],> 7.94 µM (inactive)
same,Ki,[33],> 10 µM (inactive)
